One molecule from patent publication US8580496B2, “Method and kit for the detection of genes associated with PIK3CA mutation and involved in PI3K/AKT pathway activation in the ER-postitive and HER2-positive subtypes with clinical implications” (Universite Libre de Bruxelles, priority 2008, dated 2013) can be followed below.

One assay has as its system breast cancer patients. The assay is described as follows: Clinical outcome of breast cancer patients treated with tamoxifen, by PIK3CA mutated signature. It counts as in vivo, human. From the text: Primary breast cancer tumour samples from a previously described “tamoxifen-only treated” data set (Loi, 2007; J. Clin Oncol., 25, 1239-46;) were collected for DNA extraction and mutation analysis. The inventors obtained DNA from 173 samples for PIK3CA mutation sequencing and from 131 samples for AKT1 mutation analysis. The median follow-up of these samples was 9.0 yrs (range: 8.2-9.8 yrs), with 45 (28%) distant metastatic events.
Part of the tamoxifen-treated dataset has previously been described (Loi, 2007). Another 77 primary breast cancer samples also treated with tamoxifen monotherapy with corresponding Affymetrix gene expression data was also used for the survival analysis.
The inventors have developed an index called the PIK3CA index that could measure the similarity between the expression profile of any given tumour sample and the PI3K/AKT pathway activation by breast cancers with a PIK3CA mutation.
Statistical analysis was performed using the SPSS statistical software package (SPSS Inc. Chicago, Ill.) version 13.0. […]
Breast cancer molecular subgroups were defined using a previously reported method of WIRAPATI ET AL, 2008, Breast cancer […], 10, R65. The gene expression grade index (GGI) was used as a quantification of the expression of proliferation genes (SOTRIOU ET AL, 2006). […]

Assay [1] relates to PIK3CA mutant lines including MCF7 and T47D. Kind of assay: Sensitivity of breast cancer cell lines to tamoxifen, PIK3CA mutant vs normal lines. Type of assay: cell-based.

With `CC/C(=C(\c1ccccc1)c1ccc(OCCN(C)C)cc1)c1ccccc1` [tamoxifen], the response to tamoxifen result in the assay with breast cancer patients (Her2 positive BC patients with the mutated PIK3CA signature vs the other Her2 positive patients) is on record as “responded better”. In the assay with breast cancer patients (luminal B tumours, higher vs lower expression levels of the PIK3CA signature (FIG. 4)), the “benefit from tamoxifen (clinical outcome)” value is “benefit better”. Moreover, the sensitivity to tamoxifen result in assay [1] is given as “more sensitive”.
